Legend:
[1] = test system: diamondback moth (Plutella xylostella); experiment: Insecticidal effect on diamondback moth (Test Example 1); type: in vivo; details: for Insecticidal effect on diamondback moth (Test Example 1), judged grade: mortality judged according to the criterion shown in Test Example 1; for Insecticidal effect, Test Example 1 / Insecticidal effect (Test Example 1), judged from mortality: diamondback moth; for Insecticidal effect (Test Example 1), judged from mortality: judged by the criterion of Test Example 1
How it was run: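 Triplicate groups of 10 insects: eggs laid on Chinese cabbage seedling by adults, seedling immersed then air-dried, kept at 25° C. Day-6 hatch counts gave mortality, rated by criterion.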

[2] = test system: rice leafroller (Cnaphalocrocis medinalis); experiment: Insecticidal effect on rice leafroller (Test Example 3); type: in vivo; details: 500 ppm, 25° C., humidity 70%; for Insecticidal effect on rice leafroller (Test Example 3), judged grade / Insecticidal effect (Test Example 3), judged from mortality: rice lamina dip; for Insecticidal effect on rice leafroller (Test Example 3), judged grade: third-instar larvae; for Insecticidal effect on rice leafroller (Test Example 3), judged grade / Insecticidal effect, Test Example 3: four days after inoculation; for Insecticidal effect, Test Example 3: rice lamina immersed; for Insecticidal effect (Test Example 3), judged from mortality: 4 days after inoculation
How it was run: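 Insecticidal effect is judged by a predefined criterion from dead/alive counts four days after infesting air-dried lamina with third-instar larvae, kept on moistened filter paper at 25° C, 70% humidity.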

[3] = mortality judged by criterion of Test Example 1
[4] = rice leafroller third-instar larvae
[5] = judged by the mortality criterion of Test Example 1
[6] = third-instar larvae of rice leafroller

## CC(C)NC(=O)c1c(C(=O)Nc2ccc([N+](=O)[O-])cc2)cccc1[N+](=O)[O-] [compound 596]
[1]
  Insecticidal effect on diamondback moth (Test Example 1), judged grade: D (79-50)
[2]
  Insecticidal effect on rice leafroller (Test Example 3), judged grade: D (79-50)

## CC(C)NC(=O)c1c(Cl)cccc1C(=O)Nc1ccc(C=C(Cl)C(F)(F)F)cc1 [compound 911]
[1]
  Insecticidal effect on diamondback moth (Test Example 1), judged grade: A (100)
[2]
  Insecticidal effect on rice leafroller (Test Example 3), judged grade: D (79-50)

## CCN(CC)C(=O)c1c(C(=O)Nc2ccc(C(F)(F)C(F)(F)F)cc2F)cccc1[N+](=O)[O-] [compound 1134]
[1]; [3]
  Insecticidal effect, Test Example 1: A (100)
[2]; [4]
  Insecticidal effect, Test Example 3: A (100)

## CC(C)NC(=O)c1ccccc1C(=O)Nc1ccc(SC(F)(F)Br)cc1 [compound 1106]
[1]; [3]
  Insecticidal effect, Test Example 1: A (100)
[2]; [4]
  Insecticidal effect, Test Example 3: A (100)

## CC(C)NC(=O)c1c(F)cccc1C(=O)Nc1ccc(OC(F)(F)F)cc1 [compound 475]
[1]
  Insecticidal effect on diamondback moth (Test Example 1), judged grade: A (100)
[2]
  Insecticidal effect on rice leafroller (Test Example 3), judged grade: D (79-50)

## Cc1cccc(NC(=O)c2cccc(Br)c2C(=O)NC(C)C)c1C [compound 263]
[1]; [5]
  Insecticidal effect, Test Example 1: A (100)
[2]; [6]
  Insecticidal effect, Test Example 3: A (100)

## CCOP(=O)(OCC)c1ccc(NC(=O)c2c(Cl)cccc2C(=O)NC(C)C)c(C)c1 [compound 251]
[1]; [5]
  Insecticidal effect, Test Example 1: A (100)
[2]; [6]
  Insecticidal effect, Test Example 3: A (100)

## Cc1cc(C(F)(F)C(F)(F)F)ccc1NC(=O)c1c(F)cccc1C(=O)NC(C)C [compound 551]
[1]
  Insecticidal effect on diamondback moth (Test Example 1), judged grade: A (100)
[2]
  Insecticidal effect on rice leafroller (Test Example 3), judged grade: A (100)

## Cc1cc(SC(F)F)ccc1NC(=O)c1cccc([N+](=O)[O-])c1C(=O)NC(C)C [compound 722]
[1]
  Insecticidal effect on diamondback moth (Test Example 1), judged grade: A (100)
[2]
  Insecticidal effect on rice leafroller (Test Example 3), judged grade: A (100)

## Cc1cc(C(F)(F)C(F)(F)F)ccc1NC(=O)c1c(C)cccc1C(=O)NC(C)C [compound 954]
[1]; [3]
  Insecticidal effect, Test Example 1: A (100)
[2]; [4]
  Insecticidal effect, Test Example 3: A (100)

## CC(C)NC(=O)c1cccc(I)c1C(=O)Nc1ccc(Br)cc1 [compound 412]
[1]; [5]
  Insecticidal effect, Test Example 1: A (100)
[2]; [6]
  Insecticidal effect, Test Example 3: C (89-80)

## CC(C)NC(=O)c1cccc(F)c1C(=O)Nc1ccc(C(F)(F)C(F)(F)F)cc1 [compound 892]
[1]
  Insecticidal effect on diamondback moth (Test Example 1), judged grade: A (100)
[2]
  Insecticidal effect on rice leafroller (Test Example 3), judged grade: A (100)

## CC(C)NC(=O)c1c(C(=O)Nc2ccc(C(C)C)cc2)cccc1[N+](=O)[O-] [compound 604]
[1]
  Insecticidal effect on diamondback moth (Test Example 1), judged grade: A (100)
[2]
  Insecticidal effect on rice leafroller (Test Example 3), judged grade: D (79-50)

## CN(C(=O)c1ccccc1C(=O)NC(C)(C)C)c1ccc(OC(F)(F)F)cc1 [compound 933]
[1]
  Insecticidal effect on diamondback moth (Test Example 1), judged grade: A (100)
[2]
  Insecticidal effect on rice leafroller (Test Example 3), judged grade: A (100)

## CCCN(CC)C(=O)c1c(F)cccc1C(=O)Nc1ccc(OC(F)(F)F)cc1 [compound 1582]
[1]
  Insecticidal effect (Test Example 1), judged from mortality: A (100)
[2]; [6]
  Insecticidal effect (Test Example 3), judged from mortality: A (100)

## Cc1cc(Cl)ccc1NC(=O)c1c(Br)ccc(Br)c1C(=O)NC(C)C [compound 341]
[1]; [5]
  Insecticidal effect, Test Example 1: A (100)
[2]; [6]
  Insecticidal effect, Test Example 3: A (100)

## Cc1cc(SC(C)C)ccc1NC(=O)c1cccc(Cl)c1C(=O)NC(C)C [compound 153]
[1]; [5]
  Insecticidal effect, Test Example 1: A (100)
[2]; [6]
  Insecticidal effect, Test Example 3: D (79-50)

## CC(C)NC(=O)c1c(Cl)cccc1C(=O)Nc1ccc(-c2ccccc2)cc1 [compound 110]
[1]; [5]
  Insecticidal effect, Test Example 1: A (100)
[2]; [6]
  Insecticidal effect, Test Example 3: A (100)

## C=CCON=C(C)c1ccc(NC(=O)c2cccc(I)c2C(=O)NC(C)C)cc1 [compound 1750]
[1]
  Insecticidal effect (Test Example 1), judged from mortality: A (100)
[2]; [6]
  Insecticidal effect (Test Example 3), judged from mortality: A (100)

## COCC(C)NC(=O)c1cccc(I)c1C(=O)Nc1ccc(C(F)(F)C(F)(F)F)cc1C (stereo not shown) [compound 1032]
[1]; [3]
  Insecticidal effect, Test Example 1: A (100)
[2]; [4]
  Insecticidal effect, Test Example 3: A (100)

## CC(C)NC(=O)c1c(C(=O)Nc2ccc(C(F)(F)F)cc2Cl)cccc1[N+](=O)[O-] [compound 660]
[1]
  Insecticidal effect on diamondback moth (Test Example 1), judged grade: A (100)
[2]
  Insecticidal effect on rice leafroller (Test Example 3), judged grade: A (100)

## Cc1cc(F)ccc1NC(=O)c1c(Br)cccc1C(=O)NC(C)C [compound 314]
[1]; [5]
  Insecticidal effect, Test Example 1: A (100)
[2]; [6]
  Insecticidal effect, Test Example 3: A (100)

## CC(C)NC(=O)c1c(C(=O)Nc2cc(Cl)ccc2Cl)cccc1[N+](=O)[O-] [compound 634]
[1]
  Insecticidal effect on diamondback moth (Test Example 1), judged grade: A (100)
[2]
  Insecticidal effect on rice leafroller (Test Example 3), judged grade: D (79-50)

## CCCNC(=O)c1c(Cl)cccc1C(=O)Nc1ccc(C(F)(F)C(F)(F)C(F)(F)F)cc1F [compound 1493]
[1]
  Insecticidal effect (Test Example 1), judged from mortality: A (100)
[2]; [6]
  Insecticidal effect (Test Example 3), judged from mortality: A (100)

## Cc1cc(C#Cc2ccccc2)ccc1NC(=O)c1cccc(Cl)c1C(=O)NC(C)C [compound 1325]
[1]; [3]
  Insecticidal effect, Test Example 1: A (100)
[2]; [4]
  Insecticidal effect, Test Example 3: A (100)

## CC(C)NC(=O)c1ccccc1C(=O)Nc1ccc(C(F)(F)F)cc1 [compound 25]
[1]; [5]
  Insecticidal effect, Test Example 1: A (100)
[2]; [6]
  Insecticidal effect, Test Example 3: A (100)

## Cc1cc(OC(F)(F)C(F)(F)c2ccccc2)ccc1NC(=O)c1cccc([N+](=O)[O-])c1C(=O)NC(C)C [compound 1089]
[1]; [3]
  Insecticidal effect, Test Example 1: A (100)
[2]; [4]
  Insecticidal effect, Test Example 3: A (100)

## COc1cc(NC(=O)c2c(I)cccc2C(=O)NC(C)C)ccc1OC(F)F [compound 450]
[1]
  Insecticidal effect on diamondback moth (Test Example 1), judged grade: A (100)
[2]
  Insecticidal effect on rice leafroller (Test Example 3), judged grade: C (89-80)

## Cc1cc(C(F)(F)C(F)(F)F)ccc1NC(=O)c1cccc(Cl)c1C(=O)NCCc1cccc(Cl)c1 [compound 1358]
[1]; [3]
  Insecticidal effect, Test Example 1: A (100)
[2]; [4]
  Insecticidal effect, Test Example 3: C (89-80)

## CC(C)NC(=O)c1c(C(=O)Nc2cc(C(F)(F)F)ccc2Cl)cccc1[N+](=O)[O-] [compound 661]
[1]
  Insecticidal effect on diamondback moth (Test Example 1), judged grade: B (99-90)
[2]
  Insecticidal effect on rice leafroller (Test Example 3), judged grade: D (79-50)

## CC(C)NC(=O)c1c(Cl)cccc1C(=O)Nc1ccc(OC(F)F)c(Cl)c1 [compound 134]
[1]; [5]
  Insecticidal effect, Test Example 1: A (100)
[2]; [6]
  Insecticidal effect, Test Example 3: A (100)

## CC(C)NC(=O)c1cc(Cl)ccc1C(=O)Nc1cccc(C(F)(F)F)c1 [compound 171]
[1]; [5]
  Insecticidal effect, Test Example 1: A (100)
[2]; [6]
  Insecticidal effect, Test Example 3: D (79-50)

## Cc1cc(C(F)(F)C(F)(F)F)ccc1NC(=O)c1c(C)cccc1C(=O)NC(C)(C)C [compound 956]
[1]; [3]
  Insecticidal effect, Test Example 1: A (100)
[2]; [4]
  Insecticidal effect, Test Example 3: A (100)

## CCN(CC)C(=O)c1c(F)cccc1C(=O)Nc1ccc(C(F)(F)F)cc1 [compound 1547]
[1]
  Insecticidal effect (Test Example 1), judged from mortality: A (100)
[2]; [6]
  Insecticidal effect (Test Example 3), judged from mortality: A (100)

## Cc1cc(OC(F)F)ccc1NC(=O)c1cccc([N+](=O)[O-])c1C(=O)NC1CC1 [compound 852]
[1]
  Insecticidal effect on diamondback moth (Test Example 1), judged grade: A (100)
[2]
  Insecticidal effect on rice leafroller (Test Example 3), judged grade: D (79-50)

## Cc1ccc(Cl)cc1NC(=O)c1c(Br)cccc1C(=O)NC(C)C [compound 307]
[1]; [5]
  Insecticidal effect, Test Example 1: A (100)
[2]; [6]
  Insecticidal effect, Test Example 3: D (79-50)

## CNC(=O)c1cccc(I)c1C(=O)Nc1ccc(C(F)(F)C(F)(F)F)cc1C [compound 1312]
[1]; [3]
  Insecticidal effect, Test Example 1: A (100)
[2]; [4]
  Insecticidal effect, Test Example 3: A (100)

## Cc1cc(OC(F)(F)F)ccc1NC(=O)c1cccc(I)c1C(=O)NCCc1cccnc1 [compound 1772]
[1]
  Insecticidal effect (Test Example 1), judged from mortality: A (100)
[2]; [6]
  Insecticidal effect (Test Example 3), judged from mortality: A (100)

## Cc1c(F)cccc1NC(=O)c1cccc(F)c1C(=O)NC(C)C [compound 494]
[1]
  Insecticidal effect on diamondback moth (Test Example 1), judged grade: A (100)
[2]
  Insecticidal effect on rice leafroller (Test Example 3), judged grade: A (100)

## Cc1cc(OC(F)(F)C(F)(F)c2ccccc2)ccc1NC(=O)c1ccccc1C(=O)NC(C)C [compound 1086]
[1]; [3]
  Insecticidal effect, Test Example 1: A (100)
[2]; [4]
  Insecticidal effect, Test Example 3: A (100)

## Cc1cc(Oc2cccc(C(F)(F)F)c2)ccc1NC(=O)c1cccc([N+](=O)[O-])c1C(=O)NC(C)C [compound 724]
[1]
  Insecticidal effect on diamondback moth (Test Example 1), judged grade: A (100)
[2]
  Insecticidal effect on rice leafroller (Test Example 3), judged grade: B (99-90)

## COc1cccc(C(=O)NC(C)C)c1C(=O)Nc1ccc(Br)cc1C [compound 771]
[1]
  Insecticidal effect on diamondback moth (Test Example 1), judged grade: A (100)
[2]
  Insecticidal effect on rice leafroller (Test Example 3), judged grade: C (89-80)

## CCCNC(=O)c1c(Cl)cccc1C(=O)Nc1ccc(C(F)(F)C(F)(F)F)cc1Cl [compound 1492]
[1]
  Insecticidal effect (Test Example 1), judged from mortality: A (100)
[2]; [6]
  Insecticidal effect (Test Example 3), judged from mortality: A (100)

## Cc1cc(F)ccc1NC(=O)c1c(I)cccc1C(=O)NC(C)C [compound 432]
[1]; [5]
  Insecticidal effect, Test Example 1: A (100)
[2]; [6]
  Insecticidal effect, Test Example 3: A (100)

## Cc1cc(C(F)(F)C(F)(F)F)ccc1NC(=O)c1ccc(Br)c(Br)c1C(=O)NC(C)C [compound 1266]
[1]; [3]
  Insecticidal effect, Test Example 1: A (100)
[2]; [4]
  Insecticidal effect, Test Example 3: A (100)

## CC(C)NC(=O)c1ccccc1C(=O)Nc1ccc(Cl)cc1F [compound 1632]
[1]
  Insecticidal effect (Test Example 1), judged from mortality: A (100)
[2]; [6]
  Insecticidal effect (Test Example 3), judged from mortality: A (100)

## Cc1ccc(Cl)cc1NC(=O)c1ccc(F)cc1C(=O)NC(C)C [compound 530]
[1]
  Insecticidal effect on diamondback moth (Test Example 1), judged grade: A (100)
[2]
  Insecticidal effect on rice leafroller (Test Example 3), judged grade: D (79-50)
